From patent US9707267B2, “Beta-turn peptidomimetic cyclic compounds for treating dry eye” (Mimetogen Pharmaceuticals, Inc., priority 2008, dated 2017)

Columns and labels:
[1] = tested on: rat conjunctival goblet cells; assay: Glycoconjugate secretion from rat conjunctival goblet cells, ELLA (Example 1); format: cell-based; settings: 2 hours, mean±sem
Protocol: Cells derived from the explants were grown in RPMI 1640 supplemented with 10% fetal bovine serum (FBS) and penicillin (100 U/mL)/streptomycin (100 μg/mL) at 37° C. in a humidified 5% CO2-atmosphere for seventy-two hours. Contaminating nongoblet cells were removed by scraping them from the plate. During this time, goblet cells migrated from the pieces and began to proliferate. After one week, the goblet cells were trypsinized and plated in twenty-four well culture plates with RPMI-1640 media supplemented with 10% FBS.
To measure glycoconjugate secretion, the conjunctival goblet cells were grown to confluence and were serum deprived for two hours before addition of nerve growth factor (NGF), carbachol (Cch), compound D3, compound 3Aa and compound 3Ak for two hours. Compounds D3, 3Aa and 3Ak were administered at concentrations of 30 μm (micromolar), 10 μM, 1 μM and 0.3 μM. The vehicle used to dissolve the compounds, dimethyl sulfoxide (DMSO) was also included. DMSO was used as the basal control for the 30 μM concentration of compound, which was at 0.1% (v/v). The cholinergic agonist carbachol (Cch), added at 100 μM (micromolar), was a positive control for glycoconjugate secretion. The amount of glycoconjugate secreted into the media was measured by enzyme-linked lectin assay (ELLA). The media were collected and analyzed for amount of the lectin-detectable glycoconjugates, including mucins. The amount of secretion was measured by using the lectin UEA-I which is specific for rat conjunctival goblet cell mucins. Biotinylated UEA-I lectin and alkaline phosphatase-labeled streptavidin were used as described in Rios, J. D., et al., “Role of Neurotrophins and Neurotrophin Receptors in Rat Conjunctival Goblet Cell Secretion and Proliferation, Ophthalmology & Visual Science, 48: 1543-1551 (2007), the entire content of which is incorporated herein by reference. The cells were removed and sonicated, and the cell homogenate was analyzed for the total amount of protein by using the Bradford protein assay. […] Glycoconjugate secretion was expressed as the increase (x-fold) over basal.
Data for CGC glycoconjugate secretion and proliferation were expressed as the increase (x-fold) above basal value, which was standardized to 1.0. For example, for the 0.3 μM (micromolar), 1 μM and 10 μM doses, the CGC glycoconjugate secretion and proliferation were expressed as test compound over untreated cells. For the 30 μM dose, the CGC glycoconjugate secretion and proliferation were expressed as test compound over DMSO untreated cells. Results are expressed as the mean±sem.

[2] = tested on: Scopolamine Induced Rat Dry Eye Model; assay: Scopolamine induced rat dry eye model, corneal staining (Example 5); format: in vivo; settings: for Corneal Staining: score 0 to 4, ± SD
Protocol: Dry eye was induced using scopolamine hydrobromide (Sigma-Aldrich, St. Louis, Mo.), which was continuously and systemically delivered to the animals via an osmotic pump (2ML4 Alzet®; CedarLane, Burlington, Ontario) filled with scopolamine and implanted subcutaneously in the mid dorsal area between the scapulae. Scopolamine was delivered for a twenty-eight day period at 12.5 mg/day, which translated to 30.0±1.5 mg/kg via osmotic pump.
Treatments for G2-G6 continued daily for seventeen days (up to an including day twenty-one). Thereafter, treatments were terminated but the study continued for another week. During treatment, each animal was anesthetized in an isoflurane chamber. Once asleep, each animal received a 5 μL topical instillation of test article into the lower conjunctival sac of both eyes using a calibrated micropipette. If a clinical endpoint was also being tested, the test article was topically instilled at the end of the testing.
Immediately following TBUT assessment, the clinical signs of corneal dryness were evaluated by fluorescein staining of the cornea and was tested on day 13 (after 8 daily treatments), day 21 (after 16 daily treatments), and day 28 (after treatment was stopped for 7 days). A drop of a 0.2% sodium fluorescein solution made up in sterile saline was instilled in the upper conjunctival sac of the anaesthetized animal. The cornea was thereafter observed under blue light using a Portable Slit Lamp ophthalmoscope with blue cobalt filter (Reichert Ophthalmic Instruments, Depew, N.Y.) two to three minutes after fluorescein instillation. For each animal, the punctate fluorescein-stained area of the cornea was recorded in a masked fashion. The score of this test was graded from 0 to 4, where 0 is equal to no staining, 1 is less than 25% surface staining, 2 is 25-50% surface staining, 3 is 50-75% surface staining, and 4 is greater than 75% surface staining.

Compound	CGC glycoconjugate secretion ([1]; 0.3 μM) [fold above basal]	CGC glycoconjugate secretion ([1]; 1 μM) [fold above basal]	CGC glycoconjugate secretion ([1]; 10 μM) [fold above basal]	CGC glycoconjugate secretion ([1]; 30 μM, over DMSO basal) [fold above basal]	Corneal Staining ([2]; 0.4% topical 1× daily Days 5-21, Day 13) [Score]	Corneal Staining ([2]; 0.4% topical 1× daily Days 5-21, Day 21) [Score]	Corneal Staining ([2]; 0.4% topical 1× daily Days 5-21, Day 28 (7 days after treatment stopped)) [Score]	changes in corneal staining at Day 28 as compared to Day 13 (in words) ([2]; 1% dose vs untreated and saline control groups)	Corneal Staining ([2]; 1.0% topical 1× daily Days 5-21, Day 13) [Score]	Corneal Staining ([2]; 1.0% topical 1× daily Days 5-21, Day 21) [Score]	Corneal Staining ([2]; 1.0% topical 1× daily Days 5-21, Day 28 (7 days after treatment stopped)) [Score]	Corneal Staining ([2]; 2.5% topical 1× daily Days 5-21, Day 13) [Score]	Corneal Staining ([2]; 2.5% topical 1× daily Days 5-21, Day 21) [Score]	Corneal Staining ([2]; 2.5% topical 1× daily Days 5-21, Day 28 (7 days after treatment stopped)) [Score]	CGC glycoconjugate secretion ([1]; NGF, concentration not given) [fold above basal]	Corneal Staining ([2]; 0.00053% topical 1× daily Days 5-21, Day 13) [Score]	Corneal Staining ([2]; 0.00053% topical 1× daily Days 5-21, Day 21) [Score]	Corneal Staining ([2]; 0.00053% topical 1× daily Days 5-21, Day 28 (7 days after treatment stopped)) [Score]
NCCCC[C@@H]1NC(=O)[C@H](CCC(=O)O)NC(=O)c2cc([N+](=O)[O-])ccc2OCCC(C(=O)NCC(=O)O)NC1=O (stereo partly drawn) [Compound D3]	1.3±0.2	1.6±0.2	1.6±0.3	1.7±0.7	2.7 ± 0.4	2.1 ± 0.4	2.4 ± 0.7	statistically significantly improved corneal staining	2.8 ± 0.6	2.3 ± 0.6	1.3±0.3	2.1 ± 0.7	2.1 ± 1.0	2.6 ± 0.4				
NGF: nerve growth factor (recombinant human), positive control															1.3±0.1	2.6 ± 0.5	2.3 ± 0.6	2.2 ± 0.3
